# According to patent publication US20230365493A1, “COMPOUNDS AND METHODS” (DEMAGTECH PTY LTD, priority 2020, published 2023):
# Experiments:
# [1] = system: Lolium rigidum (herbicide resistant ryegrass); assay: Activity vs a panel of plants: Lolium rigidum; assay type: in vivo; settings: 31.25 μM to 4000 μM; imaged day 12
# Text: (§1) Pots (63×63×59 mm) were filled with Seedling Substrate Plus+ soil (Bord na Móna Horticulture Ltd, Newbridge, Ireland) consisting of Irish peat. Soil was pre-wet to saturation before sowing seeds. Seeds of the following species were sown. • Arabidopsis thaliana • Cynodon dactylon (couch grass) • Eragrostis tef (tef) • Lolium rigidum (herbicide resistant ryegrass) • Ratibida columnifera (prairie coneflower) • Raphanus raphanistrum (wild radish) • Solanum lycopersicum (tomato) • Triticum aestivum (wheat)
# (§2) The number of seeds depended on germination rate and plant size. Seeds were sown in pots (63×63×59 mm) of Seedling Substrate Plus+ soil (Bord na Móna Horticulture Ltd, Newbridge, Ireland) consisting of Irish peat. Soil was pre-wet before sowing to saturation and watered throughout the experiment to maintain adequate moisture. No fertilizer was added. Seeds were cold-treated 7 days in the dark at 4° C. to synchronize germination and grown in a chamber at 22° C., with 60% relative humidity and a 16 h light/8 h dark photoperiod. […]
# (§3) Each compound was tested on seedlings by pipetting 600 μL of 0, 31.25, 62.5, 125, 250, 500, 1000, 2000 or 4000 μmol/L solutions directly onto the plants; these quantities and concentrations are equivalent to ˜10, 20, 40, 78, 156, 312, 625 and 1250 g/ha a.i. […]
# Arabidopsis thaliana [2] = assay: Small-scale drift (volatility) assay; design: species or system Arabidopsis thaliana Col-0; settings: for drift burn (volatility), FIG. 6: 15 mM and 30 mM, same methodology; for drift behaviour, FIG. 27: 2.5 or 5 mM, images recorded at 17 days; for drift burn (volatility), FIG. 5: 5, 10 or 15 mM in lid in centre of pot, imaged after 2 weeks
# Method: A small-scale drift assay was established. Pots (63×63×59 mm) were filled with Seedling Substrate Plus+ soil (Bord na Móna Horticulture Ltd, Newbridge, Ireland) consisting of Irish peat. Soil was pre-wet before sowing to saturation and a plastic lid from a 50 mL tube placed in the centre of each pot. Seeds of wild type Col-0 Arabidopsis thaliana were sown around each of the lids. Seeds were cold-treated for 3 days in the dark at 4° C. to synchronize germination and then grown in a chamber at 22° C., with 60% relative humidity and in a 16 h light/8 h dark photoperiod. […] After growth for 2 weeks plants were imaged. (In the case of FIG. 27, images were recorded at 17 days).
# A second experiment was performed using the same methodology, but at higher concentrations (15 mM and 30 mM).
# [3] = system: Ratibida columnifera (prairie coneflower); assay: Activity vs a panel of plants: Ratibida columnifera; assay type: in vivo; settings: 31.25 μM to 4000 μM; imaged day 12
# Text: as §1, §2, §3
# [4] = system: Triticum aestivum (wheat); assay: Activity vs a panel of plants: Triticum aestivum; assay type: in vivo; settings: 31.25 μM to 4000 μM; imaged day 12
# Text: as §1, §2, §3
# Eragrostis tef (tef) = assay: Activity vs a panel of plants: Eragrostis tef; assay type: in vivo; settings: 31.25 μM to 4000 μM; imaged day 12
# Text: as §1, §2, §3
# [5] = system: Solanum lycopersicum (tomato); assay: Activity vs a panel of plants: Solanum lycopersicum; assay type: in vivo; settings: 31.25 μM to 4000 μM; imaged day 10
# Text: as §1, §2, §3
# [6] = system: Cynodon dactylon (couch grass); assay: Activity vs a panel of plants: Cynodon dactylon; assay type: in vivo; settings: 31.25 μM to 4000 μM; imaged day 10
# Text: as §1, §2, §3
# Arabidopsis thaliana [7] = assay: Activity vs a panel of plants: Arabidopsis thaliana; assay type: in vivo; settings: 31.25 μM to 4000 μM; imaged day 12
# Text: as §1, §2, §3
# [8] = system: A. thaliana wild type Col-0 or single-locus DMOc line; assay: Compatibility with the DMOc dicamba tolerance trait; assay type: in vivo, Arabidopsis thaliana; settings: wild type vs DMOc line; dicamba 7-125 μM, 1·HCl 31-500 μM; sprayed at 4 and 7 days; imaged Day 11
# Text: To recreate dicamba tolerance by dicamba monooxygenase in A. thaliana similarly to that made by Behrens et al. (2007, Science 316: 1185-1188) a synthetic gene encoding the oxygenaseDIC from Stenotrophomonas maltophilia strain DI-6 (GenBank accession AY786443) was made to include a 58-residue chloroplast targeting leader used by Anderson and Smith (1986, Biochem. J. 240: 709-715) and incorporated a […] mutation said to provide useful changes in pH and temperature optima (See, for example, […] in International Patent Application WO2007146706A2). A BamHI site immediately preceding the sequence encoding the start Met and a SacI site immediately after the stop codon were used to subclone this synthetic DMOc gene into pMDC43 (Curtis and Grossniklaus 2003 Plant Physiol. 133: 462-469), from which the mGFP6 coding sequence and Gateway recombination cassette were removed by the same restriction enzymes, putting DMOc under control of a double CaM[…] promoter and providing it the nopaline synthase terminator. The plasmid pMDC43-DMOc was transferred from E. coli containing the plasmid to Agrobacterium tumefaciens (strain LBA4404) using a helper strain (E. coli […] pRK2013). Wild type Col-0 Arabidopsis thaliana was transformed by in planta transformation. The first transgenic generation (T1) was selected on MS-agar plates (1% agar, 1×MS salts, pH 5.7, 1% glucose) containing 20 μg/mL hygromycin. […]
# [9] = system: Raphanus raphanistrum (wild radish); assay: Activity vs a panel of plants: Raphanus raphanistrum; assay type: in vivo; settings: 31.25 μM to 4000 μM; imaged day 10
# Text: as §1, §2, §3
"drift burn (volatility), FIG. 6 (Arabidopsis thaliana [2])","drift behaviour, FIG. 27 (Arabidopsis thaliana [2])","drift burn (volatility), FIG. 5 (Arabidopsis thaliana [2])",SMILES,"activity against Lolium rigidum on an equimolar basis, FIG. 11 [1]","activity against Ratibida columnifera on an equimolar basis, FIG. 12 [3]","activity against Triticum aestivum on an equimolar basis, FIG. 17 [4]","activity against Eragrostis tef on an equimolar basis, FIG. 10 (Eragrostis tef (tef))","activity against Solanum lycopersicum on an equimolar basis, FIGS. 15 and 16 [5]","activity against Cynodon dactylon on an equimolar basis, FIGS. 8 and 9 [6]","activity against Arabidopsis thaliana on an equimolar basis, FIG. 7 (Arabidopsis thaliana [7])","compatibility with the dicamba tolerance (DMOc) trait, FIG. 26 [8]","activity against Raphanus raphanistrum on an equimolar basis, FIGS. 13 and 14 [9]"
did not show any drift burn,does not drift,no drift burn at all was visible,"COc1c(Cl)ccc(Cl)c1C(=O)OCCN(C)C.Cl [Compound 1. HCl, 2-(dimethylamino)ethyl 3,6-dichloro-2-methoxybenzoate hydrochloride]",comparable activity,comparable activity,comparable activity,comparable activity,comparable activity,comparable activity,comparable activity,Compatible with the DMOc Trait,comparable activity
did,drifted,burn symptoms are apparent,"COc1c(Cl)ccc(Cl)c1C(=O)O [dicamba, 3,6-dichloro-2-methoxybenzoic acid, reference compound]",comparable activity,comparable activity,comparable activity,comparable activity,comparable activity,comparable activity,comparable activity,compatibility,comparable activity
